Measured values reported in ChEMBL document CHEMBL1201862, “PubChem BioAssay data set” (2004).
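Compound exposure: 48 hours, 5 concentrations, 96-well plates. GI50: concentration for 50% inhibition of growth.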 Activity calls are given as the source filed them. No stated cut-off is given here; in the data, active = GI50 up to about 1.1 µM and inactive = higher.

Key:
Assay in all cases: NCI anticancer screen, dose series, 48 h
TK-10 = test system: TK-10
MDA-MB-231 = test system: MDA-MB-231
SR = test system: SR
SF-268 = test system: SF-268
HCC 2998 = test system: HCC 2998
NCI/ADR-RES = test system: NCI/ADR-RES
SW-620 = test system: SW-620
CAKI-1 = test system: CAKI-1
CCRF-CEM = test system: CCRF-CEM
A549 = test system: A549
UACC-62 = test system: UACC-62
LOX IMVI = test system: LOX IMVI
HL-60 = test system: HL-60
OVCAR-3 = test system: OVCAR-3
IGROV-1 = test system: IGROV-1
OVCAR-5 = test system: OVCAR-5
UO-31 = test system: UO-31
MDA-MB-435 = test system: MDA-MB-435
HOP-62 = test system: HOP-62
COLO 205 = test system: COLO 205

Structure (SMILES)	GI50 (TK-10)	GI50 (MDA-MB-231)	GI50 (SR)	GI50 (SF-268)	GI50 (HCC 2998)	GI50 (NCI/ADR-RES)	GI50 (SW-620)	GI50 (CAKI-1)	GI50 (CCRF-CEM)	GI50 (A549)	GI50 (UACC-62)	GI50 (LOX IMVI)	GI50 (HL-60)	GI50 (OVCAR-3)	GI50 (IGROV-1)	GI50 (OVCAR-5)	GI50 (UO-31)	GI50 (MDA-MB-435)	GI50 (HOP-62)	GI50 (COLO 205)
Cc1ccc(S(=O)(=O)NC(=O)Nc2c(S(N)(=O)=O)cc(S(N)(=O)=O)c(Cl)c2Cl)cc1	> 100 µM (inactive)	> 100 µM (inactive)	> 100 µM (inactive)	> 100 µM (inactive)	> 100 µM (inactive)	> 100 µM (inactive)	> 100 µM (inactive)	> 100 µM (inactive)	> 100 µM (inactive)	> 100 µM (inactive)	> 100 µM (inactive)	> 100 µM (inactive)	> 100 µM (inactive)	> 100 µM (inactive)	> 100 µM (inactive)	> 100 µM (inactive)	> 100 µM (inactive)	> 100 µM (inactive)		
O=C(Nn1c(-c2ccccc2)nc2ccccc2c1=O)c1ccc(Cl)cc1	86.3 µM (inactive)	> 100 µM (inactive)	85.5 µM (inactive)	> 100 µM (inactive)	> 100 µM (inactive)	> 100 µM (inactive)	> 100 µM (inactive)		> 100 µM (inactive)	67.9 µM (inactive)	48.3 µM (inactive)	> 100 µM (inactive)	> 100 µM (inactive)	91.6 µM (inactive)	> 100 µM (inactive)	> 100 µM (inactive)	65.6 µM (inactive)	91.2 µM (inactive)	> 100 µM (inactive)	
O=[N+]([O-])/C=C(\CS(=O)(=O)c1ccccc1)c1ccc2c(c1)OCO2		23.1 µM (inactive)	47.5 µM (inactive)	27.2 µM (inactive)	> 100 µM (inactive)	19.7 µM (inactive)	75.3 µM (inactive)	29.2 µM (inactive)	0.56 µM (active)	37.8 µM (inactive)	48.2 µM (inactive)	37.2 µM (inactive)	38 µM (inactive)	28.4 µM (inactive)	80.5 µM (inactive)	27 µM (inactive)	28.6 µM (inactive)	23.8 µM (inactive)	92.9 µM (inactive)	53.5 µM (inactive)
Cc1c2oc(=O)c(C#N)cc2c2ccccn12	> 100 µM (inactive)	> 100 µM (inactive)	> 100 µM (inactive)	> 100 µM (inactive)	> 100 µM (inactive)	> 100 µM (inactive)	> 100 µM (inactive)	62.8 µM (inactive)	> 100 µM (inactive)	> 100 µM (inactive)	> 100 µM (inactive)	71.9 µM (inactive)	> 100 µM (inactive)	17.3 µM (inactive)	> 100 µM (inactive)	> 100 µM (inactive)	60.7 µM (inactive)	> 100 µM (inactive)		> 100 µM (inactive)
CC(=O)NC1=C(NCCCl)C(=O)c2ccccc2C1=O		36.7 µM (inactive)	30.8 µM (inactive)	59.8 µM (inactive)	32.7 µM (inactive)	29.5 µM (inactive)	25.4 µM (inactive)		19.1 µM (inactive)	35.4 µM (inactive)	20 µM (inactive)		> 10 µM (inactive)	49.5 µM (inactive)	39.8 µM (inactive)	81.8 µM (inactive)		16.6 µM (inactive)	64 µM (inactive)	28.4 µM (inactive)
O=c1[nH]c(=O)n(C2CC(O)C(CO)O2)c2nc3ccc4ccccc4c3nc12 (stereo not drawn)	> 100 µM (inactive)	26.9 µM (inactive)	24.9 µM (inactive)	55.8 µM (inactive)	59 µM (inactive)	> 100 µM (inactive)	99.8 µM (inactive)	> 100 µM (inactive)	34.2 µM (inactive)	> 100 µM (inactive)	56.9 µM (inactive)	35.4 µM (inactive)		> 100 µM (inactive)	47.4 µM (inactive)	> 100 µM (inactive)	> 100 µM (inactive)	> 100 µM (inactive)	32.4 µM (inactive)	64.9 µM (inactive)
CCCc1nc2c(n1CC)C(=O)c1ccccc1C2=O	66.1 µM (inactive)	79.6 µM (inactive)	42.3 µM (inactive)	45.5 µM (inactive)	30.8 µM (inactive)	26.2 µM (inactive)	39.1 µM (inactive)		24.5 µM (inactive)	46.5 µM (inactive)	26 µM (inactive)		44.4 µM (inactive)	32.5 µM (inactive)	27 µM (inactive)	> 100 µM (inactive)		17.5 µM (inactive)	> 100 µM (inactive)	35.5 µM (inactive)
Cc1ccc(-c2c(C#N)c(S)n(NS(=O)(=O)c3ccccc3)c(=O)c2C#N)cc1	21.4 µM (inactive)	26.1 µM (inactive)	15.1 µM (inactive)		47 µM (inactive)	13.2 µM (inactive)	29 µM (inactive)	31.9 µM (inactive)	9.1 µM (inactive)	39.7 µM (inactive)	23.9 µM (inactive)	28.5 µM (inactive)	16.7 µM (inactive)	49 µM (inactive)	23.7 µM (inactive)	65.9 µM (inactive)	20.1 µM (inactive)	23 µM (inactive)		38.5 µM (inactive)
CCCCCCCCCCCCCCCCP(=O)(O)OCC(N)C(=O)O (stereo not drawn)		32.1 µM (inactive)	13.7 µM (inactive)	27.7 µM (inactive)	40.5 µM (inactive)	> 100 µM (inactive)	28.7 µM (inactive)	19.1 µM (inactive)	33.5 µM (inactive)	46.2 µM (inactive)	44.5 µM (inactive)	17.1 µM (inactive)	18.7 µM (inactive)	23.6 µM (inactive)	14.1 µM (inactive)	21.1 µM (inactive)	16 µM (inactive)	37.3 µM (inactive)	23.4 µM (inactive)	46.1 µM (inactive)
O=C(/C=C/C=C/c1ccccc1)c1ccccc1	19.9 µM (inactive)	21.5 µM (inactive)	11.2 µM (inactive)	19.3 µM (inactive)	17.8 µM (inactive)	13.8 µM (inactive)	16.7 µM (inactive)	17.1 µM (inactive)		18.1 µM (inactive)	17.4 µM (inactive)	15.8 µM (inactive)	3.6 µM (inactive)	19.2 µM (inactive)	16.9 µM (inactive)	14.7 µM (inactive)	18.3 µM (inactive)	17.7 µM (inactive)		17.7 µM (inactive)
OC1C#CCSCC#C/C=C\1 (stereo not drawn)	> 100 µM (inactive)	> 100 µM (inactive)	> 100 µM (inactive)	> 100 µM (inactive)	> 100 µM (inactive)	1.93 µM (inactive)	18.4 µM (inactive)		27 µM (inactive)		> 100 µM (inactive)	45.2 µM (inactive)	23.6 µM (inactive)	> 100 µM (inactive)	> 100 µM (inactive)	> 100 µM (inactive)	> 100 µM (inactive)	56 µM (inactive)	> 100 µM (inactive)	15.2 µM (inactive)
O=C1Cc2c([nH]c3c(Br)cccc23)-c2ccccc2N1		33.9 µM (inactive)	19.1 µM (inactive)	77.1 µM (inactive)	44.9 µM (inactive)	40.3 µM (inactive)	38.1 µM (inactive)		16.4 µM (inactive)	> 100 µM (inactive)	48.8 µM (inactive)	25.8 µM (inactive)	21.5 µM (inactive)	> 100 µM (inactive)	> 100 µM (inactive)	> 100 µM (inactive)	37.9 µM (inactive)	> 100 µM (inactive)	37.1 µM (inactive)	27.8 µM (inactive)
CCOC(=O)CCC(NC(=O)c1ccc(OCc2nc3cc(C(F)(F)F)ccc3nc2-c2ccccc2)cc1)C(=O)OCC (stereo not drawn)		> 100 µM (inactive)	16.4 µM (inactive)	37.3 µM (inactive)	> 10 µM (inactive)	54 µM (inactive)	> 100 µM (inactive)	74.8 µM (inactive)	58.2 µM (inactive)	> 100 µM (inactive)	52.8 µM (inactive)	> 100 µM (inactive)	> 100 µM (inactive)	79.1 µM (inactive)	75.2 µM (inactive)	> 100 µM (inactive)	37.9 µM (inactive)	84.1 µM (inactive)		17.9 µM (inactive)
COc1cc2cc(C(=O)N3CC(COS(C)(=O)=O)c4ccc(O)cc43)[nH]c2c(OC)c1OC (stereo not drawn)	0.000301 µM (active)	< 0.0001 µM (active)	< 0.0001 µM (active)	< 0.0001 µM (active)	< 0.0001 µM (active)	< 0.0001 µM (active)	< 0.0001 µM (active)		< 0.01 µM (active)	< 0.0001 µM (active)	< 0.0001 µM (active)	< 0.0001 µM (active)	< 0.0001 µM (active)	< 0.0001 µM (active)	0.000158 µM (active)	0.000536 µM (active)	< 0.0001 µM (active)	< 0.0001 µM (active)	< 0.0001 µM (active)	0.000432 µM (active)
CC1CN(CCO)CC(C)O1 (stereo not drawn)	> 100 µM (inactive)	> 100 µM (inactive)	> 100 µM (inactive)	> 100 µM (inactive)	> 100 µM (inactive)	> 100 µM (inactive)	> 100 µM (inactive)	> 100 µM (inactive)	> 100 µM (inactive)	> 100 µM (inactive)	> 100 µM (inactive)		> 100 µM (inactive)	> 100 µM (inactive)	> 100 µM (inactive)	> 100 µM (inactive)	> 100 µM (inactive)	> 100 µM (inactive)	> 100 µM (inactive)	> 100 µM (inactive)
